Laboratory results taken from patent EP2656853A1, “METHOD FOR TREATING ACUTE CEREBRAL AND SPINAL BLOOD FLOW DISORDERS OF AN ISCHAEMIC OR HA[…]” (Zakrytoe Aktsionernoe Obschestvo "Pharm-Sintez", priority 2010, dated 2012).

Columns and labels:
[1] = tested on: murine bone marrow cells; conditions: positive control, 20 mg/kg intraperitoneally, male mice
Description: The Study purpose was to reveal and quantitatively assess the cytogenetic activity (mutagenicity) of the pharmacologic drugs in the mammalian bone marrow polychromatophils. The method's base is the micronuclei cells microscopic registration.
The experimental used the male and female F1(CBAx C57BI6/J) hybrid mice, two-month age, 18 to 20 grams body weight. Every group included 6 animals. The animals were kept under the 12-hour light regime, with freely available water and food. The single and five fold administration protein-polypeptide complex mutagenicity assessment animal experiments were in compliance with the official protocols. Three experimental series with relevant controls were performed: therapeutic dosage: males, single administration; subtoxic dosage: males, single administration; and therapeutic dosage: males and females, five fold administration. […]
(§1) The bone marrow cells preparations for the micronuclei account were made in conventional manner, in accordance with the "Micronuclear Test Environmental Factors Mutagenicity Assessment in Mammalian Organs Cells" Guidelines. […] 2000 polychromatophils per animal were then analyzed with coded preparations. At the 500 erythrocytes count the polychromatophil to normochromatic erythrocytes ratio was determined.

[2] = tested on: murine bone marrow cells; conditions: positive control, 20 mg/kg intraperitoneally, male mice; remark: listed apart in the source
Description: The Study purpose is to reveal and quantitatively assess the cytogenetic activity (mutagenicity) of the pharmacologic drugs in the mammalian bone marrow polychromatophils. The method's base is the micronuclei cells microscopic registration.
The experimental used the male and female F1(CBAx C57BI6/J) hybrid mice, two-month age, 18 to 20 grams body weight. Every group included 6 animals. The animals were kept under the 12-hour light regime, with freely available water and feed. The single and five fold administration protein-polypeptide complex mutagenicity assessment animal experiments were in compliance with the official protocols. Three experimental series with relevant controls were performed: therapeutic dosage: males, single administration; subtoxic dosage: males, single administration; and therapeutic dosage: males and females, five fold administration. […]
as §1

## O=P1(N(CCCl)CCCl)NCCCO1 (stereo not shown) [cyclophosphamide]
[1]
  higher micronuclei cells vs. control: 19.6 fold
[1]; control 3.16‰
  micronuclei cells: 62.1 ‰
[2]
  higher micronuclei cells count vs. control: 19.6 fold
[2]; control 3.16‰
  micronuclei cells count: 62.1 ‰
